Test results reported in US20260091050A1, “ADVANTAGEOUS ANTI-HCV COMBINATION THERAPY” (Atea Pharmaceuticals, Inc., priority 2021, published 2026).

Experiments:
[1] = Plasma levels of Compound 1 and metabolites after single oral dose of Compound 1-A, dog; type: in vivo
[2] = Heart and liver tissue levels of active triphosphate 4 hours after oral Compound 1-A, rat; type: in vivo; settings: 4 hours after single oral dose
Protocol: High levels of the active TP were measured in the liver of all species tested.

[3] = Head-to-head comparison of Compound 1 and Compound 1-A in dogs: plasma levels; type: in vivo; settings: dog plasma
Protocol: A head-to-head comparison of dogs dosed with Compound 1 and Compound 1-A was conducted.

GT1 HCV = test: Multiple dose study, 7 days QD, non-cirrhotic GT1 HCV-infected patients (Part C); type: in vivo, human
Protocol: Doses were administered as the Compound 1-A salt base. The free base Compound 1 equivalent is often given in parenthesis.
Part C was a randomized, double-blind, placebo-controlled MAD study divided into three cohorts. […] The dose escalation only proceeded following satisfactory review of the data.
HCV-infected patients were treatment-naïve with HCV RNA ≥5 log 10 IU/mL. HCV RNA was quantified using COBAS® AmpliPrep TaqMAN® v2.0 with LLQ of 15 IU/mL. Plasma drug levels were measured using LC-MS/MS. […] Mean ages of enrolled subjects were 44, 39, and 56 years in the non-cirrhotic GT1b 600 mg dose cohort, non-cirrhotic GT3 cohort, and the cirrhotic cohort, respectively.

HCV = test: Emax model: HCV RNA reduction on day 7 against AUC of metabolite 1-7; type: in vivo, human; settings: after 7 days QD dosing, metabolite 1-7 exposures ≥2000 ng/mL×h
[4] = Dog, 30 mg/kg single oral dose, plasma
[5] = 600 mg of Compound 1-A, GT1, non-cirrhotic (n = 6)

CNc1nc(N)nc2c1ncn2[C@@H]1O[C@H](CO[P@@](=O)(N[C@@H](C)C(=O)OC(C)C)Oc2ccccc2)[C@@H](O)[C@@]1(C)F [Compound 1-A, isopropyl ((S)-(((2R,3R,4R,5R)-5-(2-amino-6-(methylamino)-9H-purin-9-yl)-4-fluoro-3-hydroxy-4-methyltetrahydrofuran-2-yl)methoxy) (phenoxy)phosphoryl)-L-alaninate hemisulfate]
Compound 1 Cmax [1, 4]: 1530 ng/mL | Tmax [1, 4]: 15 to 60 min | Compound 1 Tmax ([1]; Dog, 100 mg/kg single oral dose, plasma): 30 to 60 min | vomiting (animals affected) ([1]; dogs, high dose group): 5/5 | active TP (metabolite 1-6) level in heart [2]: unquantifiable levels | active TP (metabolite 1-6) level in liver [2]: High levels | AUC(0-4 hr) of metabolite 1-7 compared to dosing with Compound 1 [3]: twice as great | Mean Dose-normalized AUC(0-4 hr) for Compound 1 ([3]; normalized to a dose of 25 mg/kg, 25 mg/kg): 1.0 µM·h | subjects achieving HCV RNA <LOQ (GT1 HCV; 600 mg QD, non-cirrhotic GT1b, LOQ=15 IU/mL): 50% | Mean Max Reduction (GT1 HCV; [5]): 4.4 log10 IU/mL | Mean Reduction After 24 hours (GT1 HCV; [5]): 2.1 log10 IU/mL | HCV RNA < LOQ (15 IU/mL) (GT1 HCV; 600 mg of Compound 1-A, GT1, non-cirrhotic (n = 6), subjects/total): 3/6 | predicted maximal viral load reduction (HCV): at least 4 log units
